Laboratory results published in patent publication US10000484B2, “Inhibitors of the renal outer medullary potassim channel” (MERCK SHARP & DOHME CORP., priority 2013, dated 2018).

molecular target: T1, hROMK (hKir1.1) (Homo sapiens, UniProt P48048); test: Thallium Flux Assay (ROMK channel functional thallium flux assay, FLIPR-Tetra); type: cell-based; settings: HEK293 cells stably expressing hROMK; 30 min incubation with compound
T1 construct: expressed in transfected cells
T1 sequence (P48048 1-391): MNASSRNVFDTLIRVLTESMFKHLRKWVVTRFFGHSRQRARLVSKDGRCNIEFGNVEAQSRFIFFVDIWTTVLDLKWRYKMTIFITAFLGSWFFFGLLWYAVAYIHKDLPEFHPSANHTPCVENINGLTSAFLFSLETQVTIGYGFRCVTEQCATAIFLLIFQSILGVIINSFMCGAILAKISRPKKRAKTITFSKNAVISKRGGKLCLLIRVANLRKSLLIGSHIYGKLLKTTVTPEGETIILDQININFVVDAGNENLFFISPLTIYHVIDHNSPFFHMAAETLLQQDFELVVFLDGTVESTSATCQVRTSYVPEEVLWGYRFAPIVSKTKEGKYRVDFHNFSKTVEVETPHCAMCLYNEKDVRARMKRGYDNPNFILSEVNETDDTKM
Experimental: The following Thallium Flux Assay was performed on each of the final product compounds in the Examples. When the final product of an Example was an HCl salt, the salt was run in the Assay.
HEK293 cells stably expressing hROMK (hKir1.1) were grown at 37° C. in a 10% CO2 humidified incubator in complete growth media: Dulbecco's Modified Eagle Medium supplemented with non-essential amino acids, Penicillin/Streptomycin/Glutamine, G418 and FBS. At >80% confluency, aspirate the media from the flask and rinse with 10 mL Calcium/Magnesium-free PBS. Add 5 mL of 1× trypsin (prepared in Ca/Mg Free PBS) to T-225 flask and return flask to 37° C./CO2 incubator for 2-3 minutes. To dislodge the cell, gently bang the side of the flask with your hand. Triturate the cells completely and then transfer the cells to 25 mL complete media. Centrifuge at 1,500 rpm for 6 min followed by resuspension in complete growth media and determine cell concentration. For typical re-seeding, 4E6 cells/T-225 flask will attain >80% confluency in 4 days. Under ideal growth conditions and appropriate tissue culture practices, this cell line is stable for 40-45 passages.
FluxOR Kit Components (Invitrogen F10017)
• FluxOR™ Reagent (Component A) • FluxOR™ Assay Buffer (Component B)—10× Concentrate • PowerLoad™ Concentrate (Component C)—100× Concentrate • Probenecid (Component D)—Lyophilized sample is kept at −20° C. Water soluble, 100× after solubilization in 1 mL water. Store at 4° C. • FluxOR™ Chloride-free Buffer (Component E)—5× Concentrate • Potassium sulfate (K2SO4) Concentrate (Component F)—125 mM in water. Store at 4° C. • Thallium sulfate (Tl2SO4) Concentrate (Component G)—50 mM in water. Store at 4° C. • DMSO (dimethyl sulfoxide, Component H)—1 mL (100%) Reagent Preparation: FluxOR Working Solutions • 1000× FluxOR™ Reagent: Reconstitute a vial of component A in 100 μl DMSO; Mix well; Store 10 μl aliquots at −20° C. • 1× FluxOR™ Assay Buffer: Dilute Component B 10-fold with water; Adjust pH to 7.4 with Hepes/NaOH; Filter and store at 4° C. • Probenecid/Assay Buffer: 100 mL of 1× FluxOR™ Assay Buffer; 1 mL of reconstituted component D; Store at 4° C. • Loading Buffer (per microplate): 10 μl 1000× FluxOR™ Reagent; 100 μl component C; 10 mL Probenecid/Assay Buffer • Compound Buffer (per microplate): 20 mL Probenecid/Assay Buffer; 0.3 mM ouabain (10 mM ouabain in water can be stored in amber bottle/aluminum foil at room temperature); Test compound • 1× FluxOR™ Chloride-Free Buffer: Prepare 1× working solution in water. Can be stored at room temperature • Stimulant Buffer (prepared at 5× final concentration in 1× FluxOR™ Chloride-Free Buffer): 7.5 mM Thallium sulfate and 0.75 mM Potassium sulfate (to give a final assay concentration of 3 mM Thallium/0.3 mM Potassium). Store at 4° C. when not in use. Assay Protocol—
The ROMK channel functional thallium flux assay is performed in 384 wells, using the FLIPR-Tetra instrument. HEK-hKir1.1 cells are seeded in Poly-D-Lysine microplates and kept in a 37° C.-10% CO2 incubator overnight. On the day of the experiment, the growth media is replaced with the FluxOR™ reagent loading buffer and incubated, protected from light, at ambient temperature (23-25° C.) for 90 min. The loading buffer is replaced with assay buffer±test compound followed by 30 min incubation at ambient temperature, where the Thallium/Potassium stimulant is added to the microplate.
1. Seed HEK-hKir1.1 cells (50 μl at 20,000 cells/well) in 384-well PDL coated Microplates
2. Allow cells to adhere overnight in humidified 37° C./10% CO2 incubator
3. Completely remove cell growth media from microplate and replace with 25 μl loading buffer
4. Incubate Microplate at room temperature, protected form light, for 90 min
5. Remove loading buffer and replace with 25 μl 1× Assay Buffer±test compound.
6. Incubate microplate at room temperature, protected from light, for 30 min
7. At FLIPR-Tetra 384: Add stimulant (Thallium/Potassium) solution to microplate and monitor fluorescence. […]

`O=C1OCc2cc(CCN3CCc4nc(-c5ccc(-n6cnnn6)cc5)ncc4C3)ccc21` [Example 6, 6-[2-(1-oxo-1,3-dihydro-2-benzofuran-5-yl)ethyl]-2-[4-(1H-tetrazol-1-34)phenyl]-5,6,7,8-tetrahydropyrido[4,3-d]pyrimidine-1,6-diium] and `Cc1c(CCN2CCc3nc(-c4ccc5c(c4)COC5=O)oc3C2)ccc2c1COC2=O` [Example 18, 4-methyl-5-{2-[2-(1-oxo-1,3-dihydro-2-benzofuran-5-yl)-6,7-dihydro[1,3]oxazolo[5,4-c]pyridin-5(4H)-yl]ethyl}-2-benzofuran-1(3H)-one] are within 1.5-fold of each other in IC50: 74 nM for the first, 74.7 nM for the second.

Going from `Cc1c([C@@H](O)CN2CCc3cc(-c4ccc5c(c4)C[C@H](C)OC5=O)ccc3C2)ccc2c1COC2=O` [Example 47, 2-[(2R)-2-hydroxy-2-(4-methyl-1-oxo-1,3-dihydro-2-benzofuran-5-yl)ethyl]-6-[(3S)-3-methyl-1-oxo-3,4-dihydro-1H-isochromen-6-yl]-1,2,3,4-tetrahydroisoquinoline] to `Cc1cc(C#N)ccc1C1C[C@H]2CN(C[C@H](O)c3ccc4c(c3C)COC4=O)CCN2C1` (stereo partly drawn) [Example 45, 4-{(8aS)-2-[(2R)-2-hydroxy-2-(4-methyl-1-oxo-1,3-dihydro-2-benzofuran-5-yl)ethyl]octahydropyrrolo[1,2-a]pyrazin-7-yl}-3-methylbenzonitrile], the IC50 falls from 249 nM to 131 nM (1.9-fold). The second is the more potent here.

With `Cc1c(CCN2CC[C@H]3[C@@H](C2)OC(=O)N3Cc2ccc3c(c2C)COC3=O)ccc2c1COC2=O` [Example 28] the IC50 was 113 nM.

molecular target: T2, ROMK (Kir1.1) (Homo sapiens, UniProt P48048); test: 86Rb+ Efflux Assay, described in WO2013/062892 at pages 79-80; type: cell-based; settings: values marked "(Rb)" in Table 10
T2 sequence (P48048 1-391): T1 sequence (P48048 1-391)
Source text: The data for Examples 2, 3, 4, 8, 9, 10, 15 and 32 were obtained using the ^86Rb^+ Efflux Assay, described in WO2013/062892 at pages 79-80.

`Cc1c(CCN2CCc3c(cnn3-c3ccc4c(c3)COC4=O)C2)ccc2c1COC2=O` [Example 10, 4-methyl-5-{2-[1-(1-oxo-1,3-dihydro-2-benzofuran-5-yl)-1,4,6,7-tetrahydro-5H-pyrazolo[4,3-c]pyridin-5-yl]ethyl}-2-benzofuran-1(3H)-one] and `Cc1c(CCN2CCc3nc(-c4ccc5c(c4)COC5=O)ncc3C2)ccc2c1COC2=O` [Example 9, 4-methyl-5-{2-[2-(1-oxo-1,3-dihydro-2-benzofuran-5-yl)-7,8-dihydropyrido[4,3-d]pyrimidin-6(5H)-yl]ethyl}-2-benzofuran-1(3H)-one] are within 1.5-fold of each other in IC50: 66 nM for the first, 96.1 nM for the second.

`Cc1c(CCN2CCc3nc(-c4ccc(C#N)cc4)ncc3C2)ccc2c1COC2=O` [Example 4, 4-{6-[2-(4-methyl-1-oxo-1,3-dihydro-2-benzofuran-5-yl)ethyl]-5,6,7,8-tetrahydropyrido[4,3-d]pyrimidin-2-yl}benzonitrile] and `N#Cc1ccc(-c2ncc3c(n2)CCN(CCc2ccc4c(c2)COC4=O)C3)cc1` [Example 2, 4-{6-[2-(1-oxo-1,3-dihydro-2-benzofuran-5-yl)ethyl]-5,6,7,8-tetrahydropyrido[4,3-d]pyrimidin-2-yl}benzonitrile] are within 1.5-fold of each other in IC50: 304 nM for the first, 306 nM for the second.

`N#Cc1ccc(-n2ncc3c2CCN(CCc2ccc4c(c2)COC4=O)C3)cc1` [Example 3, 4-{5-[2-(1-oxo-1,3-dihydro-2-benzofuran-5-yl)ethyl]-4,5,6,7-tetrahydro-1H-pyrazolo[4,3-c]pyridin-1-yl}benzonitrile] and `Cc1c(CCN2CCc3c(cnn3-c3ccc(-n4cnnn4)cc3)C2)ccc2c1COC2=O` [Example 8, 4-methyl-5-(2-{1-[4-(1H-tetrazol-1-yl)phenyl]-1,4,6,7-tetrahydro-5H-pyrazolo[4,3-c]pyridin-5-yl}ethyl)-2-benzofuran-1(3H)-one] are within 1.5-fold of each other in IC50: 501 nM for the first, 380 nM for the second.

First: Cc1c(C(O)CN2CCc3nc(-c4ccc5c(c4)COC5=O)ncc3C2)ccc2c1COC2=O (stereo not shown) [Example 32, 5-{1-hydroxy-2-[2-(1-oxo-1,3-dihydro-2-benzofuran-5-yl)-7,8-dihydropyrido[4,3-d]pyrimidin-6(5H)-yl]ethyl}-4-methyl-2-benzofuran-1(3H)-one]
Second: COc1cc(-c2cn3c(n2)CN(CCc2ccc4c(c2C)COC4=O)CC3)ccc1C#N [Example 15, 2-methoxy-4-{7-[2-(4-methyl-1-oxo-1,3-dihydro-2-benzofuran-5-yl)ethyl]-5,6,7,8-tetrahydroimidazo[1,2-a]pyrazin-2-yl}benzonitrile]
The IC50 of the first is 2.8-fold lower: 69.9 nM for the first, 197 nM for the second.
